Legend:
Format in all cases: cell-based
[1] = test system: Candida glabrata ATCC 90030; assay: Broth microdilution MIC/MFC; conditions: Nakaseomyces glabratus, ATCC90030, read-out: MIC
How it was run: (§1)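 Minimal inhibitory concentrations are determined by broth microdilution following EUCAST and CLSI. DMSO-dissolved compounds are serially halved from 1000 to 0.488 µg/ml final; inocula are 0.5 McFarland.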

[2] = test system: Candida albicans ATCC 10231; assay: Broth microdilution MIC/MFC; conditions: for MFC: ATCC10231, read-out: MFC; for MIC: ATCC10231, read-out: MIC
How it was run: as §1

[3] = test system: Candida parapsilosis ATCC 22019; assay: Broth microdilution MIC/MFC; conditions: for MFC / MIC: Lodderomyces parapsilosis; for MFC: ATCC22019, read-out: MFC; for MIC: ATCC22019, read-out: MIC
How it was run: as §1

[4] = test system: Candida albicans ATCC 2091; assay: Broth microdilution MIC/MFC; conditions: for MFC: ATCC2091, read-out: MFC; for MIC: ATCC2091, read-out: MIC
How it was run: as §1

[5] = test system: Candida krusei ATCC 14243; assay: Broth microdilution MIC/MFC; conditions: for MFC / MIC: Pichia kudriavzevii; for MFC: ATCC14243, read-out: MFC; for MIC: ATCC14243, read-out: MIC
How it was run: as §1

[6] = test system: Bacillus subtilis ATCC 6633; assay: Broth microdilution MIC/MBC; conditions: for MBC: ATCC6633; for MIC: ATCC6633, read-out: MIC
How it was run: as §1

[7] = test system: Salmonella typhimurium ATCC 14028; assay: Broth microdilution MIC/MBC; conditions: Salmonella enterica
How it was run: as §1

[8] = test system: Staphylococcus epidermidis ATCC 12228; assay: Broth microdilution MIC/MBC; conditions: for MBC: ATCC12228; for MIC: ATCC12228, read-out: MIC
How it was run: as §1

[9] = test system: Pseudomonas aeruginosa ATCC 9027; assay: Broth microdilution MIC/MBC; conditions: ATCC9027
How it was run: as §1

[10] = test system: Proteus mirabilis ATCC 12453; assay: Broth microdilution MIC/MBC; conditions: ATCC12453
How it was run: as §1

[11] = test system: Staphylococcus aureus ATCC 43300; assay: Broth microdilution MIC/MBC; conditions: Staphylococcus aureus ATCC 43300 (MRSA)
How it was run: as §1

[12] = test system: Micrococcus luteus ATCC 10240; assay: Broth microdilution MIC/MBC; conditions: for MBC: ATCC10240; for MIC: ATCC10240, read-out: MIC
How it was run: as §1

[13] = test system: Staphylococcus aureus ATCC 29213; assay: Broth microdilution MIC/MBC
How it was run: as §1

O=C(N/N=C/c1ccc([N+](=O)[O-])cc1)c1ccc(O)cc1O [Compound 21, 2,4-dihydroxy-N-[(4-nitrophenyl)methylidene]benzohydrazide]
1000 µg/mL: MIC [4] | MIC [12]
> 1: MFC/MIC [4] | MBC/MIC [12]
500 µg/mL: MIC [2] | MIC [3] | MIC [5] | MIC [6] | MIC [8] | MIC [11] | MIC ([13]; ATCC29213)
> 2: MFC/MIC [2] | MFC/MIC [3] | MFC/MIC [5] | MBC/MIC [6] | MBC/MIC [8] | MBC/MIC [11] | MBC/MIC [13]
> 1000 µg/mL: MIC [1] | MFC [2] | MFC [3] | MFC [4] | MFC [5] | MBC [6] | MIC [7] | MBC [8] | MIC [9] | MIC [10] | MBC [11] | MBC [12] | MBC ([13]; ATCC29213)

O=C(N/N=C/c1ccccc1Cl)c1ccc(O)cc1O [Compound 22, N-[(2-chlorophenyl)methylidene]-2,4-dihydroxybenzohydrazide]
1000 µg/mL: MIC [2] | MIC [3] | MIC [4] | MIC [5] | MIC [8]
> 1: MFC/MIC [2] | MFC/MIC [3] | MFC/MIC [4] | MFC/MIC [5] | MBC/MIC [8]
> 1000 µg/mL: MIC [1] | MFC [2] | MFC [3] | MFC [4] | MFC [5] | MIC [6] | MIC [7] | MBC [8] | MIC [9] | MIC [10] | MIC [11] | MIC [12] | MIC ([13]; ATCC29213)

O=C(N/N=C/c1ccccc1Br)c1ccc(O)cc1O [Compound 23, N-[(2-bromophenyl)methylidene]-2,4-dihydroxybenzohydrazide]
> 1000 µg/mL: MIC [1] | MFC [2] | MFC [3] | MFC [4] | MIC [5] | MIC [6] | MIC [7] | MBC [8] | MIC [9] | MIC [10] | MIC [11] | MIC [12] | MIC ([13]; ATCC29213)
500 µg/mL: MIC [8]
> 2: MBC/MIC [8]
> 1: MFC/MIC [2] | MFC/MIC [3] | MFC/MIC [4]
1000 µg/mL: MIC [2] | MIC [3] | MIC [4]

O=C(N/N=C/c1ccccc1F)c1ccc(O)cc1O [Compound 24, N-[(2-fluorophenyl)methylidene]-2,4-dihydroxybenzohydrazide]
> 1000 µg/mL: MIC [1] | MFC [2] | MFC [3] | MFC [4] | MFC [5] | MBC [6] | MIC [7] | MIC [8] | MIC [9] | MIC [10] | MIC [11] | MBC [12] | MIC ([13]; ATCC29213)
> 2: MBC/MIC [6]
1000 µg/mL: MIC [2] | MIC [3] | MIC [4] | MIC [5] | MIC [12]
500 µg/mL: MIC [6]
> 1: MFC/MIC [2] | MFC/MIC [3] | MFC/MIC [4] | MFC/MIC [5] | MBC/MIC [12]
